Test results taken from patent US20100286278A1, “Composition comprising an HDAC inhibitor in combination with a retinoid” (DSM IP ASSETS B.V., priority 2004, published 2010).

Tested on: transglutaminase 1 (TG1) mRNA in human epidermal keratinocytes
Assay: Expression of transglutaminase 1 (TG1) by differentiating keratinocytes (real time PCR of TG1 mRNA)
Format: cell-based
Details: substances alone: retinol 1×10−10 M, TSA 10−9 M; 1.3 mM calcium; 72 hours; relative to non-treated cells
From the text: This example illustrates how the HDAC inhibitor Trichostatin A and Retinol work synergistically. An in vitro cell culture of human primary keratinocytes has been chosen as test system. This in vitro cell culture model is useful to study differentiation processes and is able to simulate the in vivo situation in human skin (Poumay et al., 1999). To monitor differentiation processes in vitro and in vivo transglutaminase 1 is a well known marker molecule (Polakowska et al., 1999).
Epidermal keratinocytes were isolated from human foreskin biopsies and cultured in keratinocyte serum free medium (KSFM made by GIBCO) in a growth chamber with 37° C. and 5% CO2. At the second passage, cells were transferred to 6 well plates and allowed to reach approximately 50% surface confluence.
Retinol and TSA were solubilized in ethanol or ethanol/tetrahydrofuran respectively. Retinol solutions were handled under yellow light conditions only. […]
Seventy-two hours after the beginning of the treatment, cells were harvested and the RNA extracted. […] Relative quantification of TG1 mRNA transcript levels in control versus treatment cultures were determined using multiplexed real time PCR analysis. […]

Compound | modulation of the terminal differentiation process in epidermal keratinocytes (TG1 mRNA)
CC1=C(/C=C/C(C)=C/C=C/C(C)=C/CO)C(C)(C)CCC1 [Retinol] | only weak modulation
CC(/C=C/C(=O)NO)=C\[C@@H](C)C(=O)c1ccc(N(C)C)cc1 [TSA, Trichostatin A] | only weak modulation
